# According to US7977304B2, “FK 228 derivates as HDAC inhibitors” (University of Southampton Highfield, priority 2005, dated 2011):
# Assays:
# [1] = system: HDAC responsive SV40 promoter; experiment: Activity Assay 2: SV40 promoter-luciferase reporter in MCF7 derived 2.1.1 cells; assay type: cell-based; settings: approx 16 hours
# Method: Method. We generated a stable clone derived from MCF7 cells containing an integrated reporter construct with the SV40 immediate early promoter cloned upstream of the luciferase gene. MCF7 cells were transfected with pGL2-Basic (SV40/luciferase reporter) (Promega, UK) and pcDNA3 (expresses neomycin resistance gene) using Transfast transfection reagent. After 24 hours, cells were collected by trypsinisation and plated at low density. The following day, G418 was added to the growth medium. After ˜21 days, individual drug-resistant colonies were isolated and cultured. […] To test the effects of compound 001, 2.1.1 cells were incubated with various concentrations of compound 001 or an equivalent amount of DMSO as a control. The following day, cells were collected and luciferase activity detected using the Promega luciferase assay system and a TopCount (Perkin-Elmer).
# MCF7 derived cells containing a stably integrated SV40 promoter-luciferase reporter plasmid were treated with the indicated concentrations of compound 001, or DMSO as a solvent control. Luciferase activity was determined after approx 16 hours. The data shown are derived from a single experiment performed in duplicate and are representative of multiple experiments.
# [2] = system: histone acetylation in cardiac myocytes; experiment: Activity Assay 4: histone acetylation by immunoblotting, cardiac myocytes; assay type: cell-based; settings: 24 hours
# Method: Method; Cardiac myocytes were prepared as described in Chembiochem. 2005 January; 6(1):162-70 and incubated with the indicated concentrations of compound 001 for 24 hours. MCF7 cells were incubated with the indicated concentrations of compound 001 for 24 hours. Expression of total histone H4 acetylation, or specific acetylation of Histone H4-K8 or Histone H3-K9 was analysed by Western blotting, as previously described (Brimmell et al. Br J Cancer. 1999 November; 81(6):1042-51) using antibodies from Upstate Biotech.
# (A) MCF7 cells were incubated with compound 001 for 24 hours. Histone H4 acetylation was measured by immunoblotting. (B) Cardiac myocytes were incubated with indicated compound 001 for 24 hours. Histone H4 acetylation was measured by immunoblotting. (C) MCF7 cells were incubated with compound 001 for 24 hours. Histone H3-K9 and Histone H4-K8 acetylation was measured by immunoblotting
# [3] = system: HDAC (Hela Nuclear Extract); experiment: Activity Assay 5: in vitro HDAC fluorescent activity assay (Biomol kit); assay type: biochemical; settings: compounds reduced with DTT prior to analysis, 37° C., 1 hour, read-out: Inhibition of HDAC activity IC50
# Method: We analysed the ability of compounds to inhibit in vitro HDAC activity. In vitro HDAC assays were performed using a HDAC fluorescent activity assay kit (Biomol, UK) according to the manufacturer's instructions. Compounds were reduced prior to analysis; 1 mM compound was reduced with 30 mM DTT in DMSO overnight at room temperature, protected from light. Reactions were then set up in a 96-well plate. […] Serial dilutions were set up for each compound. Reactions containing Hela extract only and assay buffer only were also set up. 25 μl diluted Fluor de Lys™ substrate (100-fold in assay buffer) was added to each reaction, which were then incubated at 37° C. for 1 hour. The reaction was stopped by addition of 50 μl Fluor de Lys™ Developer (20-fold dilution in assay buffer, plus TSA diluted 100-fold). […] Inhibition of in vitro HDAC activity was determined for mean values of duplicate samples as percentages relative to HeLa extract only reactions. IC50 values were calculated using GraphPad Prism software.
# [4] = system: PC3 prostate cancer cells; experiment: Activity Assay 6: CyQuant cell growth inhibition, PC3; assay type: cell-based; settings: Homo sapiens, 96 h, PC3, 4 days
# Method: We analysed the ability of compounds to inhibit the in vitro growth of human cancer cells. Cell proliferation assays were performed using the CyQuant™ assay system (Molecular Probes, Inc. USA) according to the manufacturer's instructions. MCF7 breast, A2780 ovarian and PC3 and LNCAP prostate cancer cells were plated in 96 well plates, at a density of 1000 cells for MCF7 cells or 5000 cells for M780/PC3/LNCAP cells, in 100 μl of cell culture medium per well. Compounds were added a minimum of 5 hours later, in serial dilutions in cell culture medium, in 100 μl volumes at 2× final concentration. Cell culture medium was removed after 4 (A2780, PC3 or LNCAP cells) or 6 days (MCF7 cells) by inversion of the plate onto blotting paper and cells were gently washed once with 200 μl PBS. Plates were frozen immediately for a minimum of one hour at −80° C. and then thawed. 200 μl of 1× CyQuant cell lysis buffer supplemented with dye, made according to the manufacturer's instruction, was added immediately to each well and incubated at room temperature for 3-5 minutes. Fluorescence was then measured for each well using a Cytofluor II Fluoresence Multiwell Plate Reader and CytoFluor II software with filters at 480 nm for excitation and 520 nm for emission maxima. Cell proliferation was determined for mean values of duplicate samples as percentages relative to untreated cell samples (=100%). Growth inhibition curves were used to derive IC50 values.
# [5] = system: inflammation in Balb/c mice; experiment: Activity Assay 8: oxazolone-induced ear inflammation in mice; assay type: in vivo; settings: 24 hours; for Change in ear weight: Mean ± SD, 8 animals per group
# Method: We analysed the ability of compound 9A (the compound of formula (2) on page 7) to inhibit inflammation in mice. Balb/c mice were sensitised by application of 5% (w/v) oxazolone to abdominal shaved skin. After 7 days mice were challenged by topical application of 3% (w/v) oxalazone to the left ear and acetone to the right ear. After 30 minutes test compounds dissolved in acetone were applied to the ears (dorsal and ventral surface).
smiles,measurement,setting,value
"CC(C)[C@H]1NC(=O)[C@H]2CSSCC/C=C/[C@H](CC(=O)N[C@H](C)C(=O)N2)OC(=O)CNC1=O [Compound 9A, (E)-(1S,7R,10S,21R)-7-isopropyl-21-methyl-2-oxa-12,13-dithia-5,8,20,23-tetraaza-bicyclo[8.7.6]tricos-16-ene-3,6,9,19,22-pentaone]",activity of the HDAC responsive SV40 promoter (luciferase activity),[1],effectively reverses HDAC-mediated repression of the SV40 immediate early promoter
same,"Histone H4 acetylation, cardiac myocytes",[2],induces the accumulation of acetylated histone H4
same,IC50,[3],9.9 nM
same,IC50,[4],50 nM
same,% inhibition compared to vehicle,[5]; 0.1% topical in acetone,33.3%
same,Change in ear weight,[5]; 0.1% topical in acetone,42.4 ± 4.3 mg
same,% inhibition compared to vehicle,[5]; 1% topical in acetone,63.0%
same,Change in ear weight,[5]; 1% topical in acetone,23.5 ± 3.2 mg
